According to PubChem BioAssay (NCI):
Where “and” joins values, the source holds several entries; their conditions need not be identical. Identical values can stand only once.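 These data come from cells grown in 96-well plates and exposed to compound for 48 hours at five concentrations. Here, GI50 denotes the concentration required for 50% inhibition of growth. TGI denotes the concentration required for complete inhibition of growth.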

Legend:
Assay in all cases: NCI anticancer screen, dose series, 48 h
MOLT-4 leukemia = test system: MOLT-4 leukemia
SF-268 CNS = test system: SF-268 CNS
NCI-H460 lung = test system: NCI-H460 lung
SK-MEL-2 melanoma = test system: SK-MEL-2 melanoma
ACHN renal = test system: ACHN renal
SK-MEL-5 melanoma = test system: SK-MEL-5 melanoma
OVCAR-5 ovarian = test system: OVCAR-5 ovarian
SK-MEL-28 melanoma = test system: SK-MEL-28 melanoma
HCT-116 colon = test system: HCT-116 colon
MDA-MB-231 breast = test system: MDA-MB-231 breast

| Structure (SMILES) | GI50 (MOLT-4 leukemia) | TGI (MOLT-4 leukemia) | GI50 (SF-268 CNS) | TGI (SF-268 CNS) | GI50 (NCI-H460 lung) | TGI (NCI-H460 lung) | TGI (SK-MEL-2 melanoma) | TGI (ACHN renal) | TGI (SK-MEL-5 melanoma) | GI50 (OVCAR-5 ovarian) | TGI (OVCAR-5 ovarian) | GI50 (SK-MEL-28 melanoma) | TGI (SK-MEL-28 melanoma) | TGI (HCT-116 colon) | GI50 (SK-MEL-2 melanoma) | GI50 (MDA-MB-231 breast) | TGI (MDA-MB-231 breast) | GI50 (HCT-116 colon) | GI50 (ACHN renal) | GI50 (SK-MEL-5 melanoma) |
| --- | --- | --- | --- | --- | --- | --- | --- | --- | --- | --- | --- | --- | --- | --- | --- | --- | --- | --- | --- | --- |
| Cc1c2ccncc2c(C)c2c1[nH]c1ccc(Cl)cc12 | 0.91 µM and 0.471 µM | 2.59 µM and 2.77 µM | 2.63 µM and 2.66 µM | 12.5 µM and 25.2 µM | 3.08 µM | 4.46 µM and 12.2 µM | 7.17 µM and 10.9 µM | 13.1 µM | 13.8 µM | 4.32 µM | 16.6 µM and 16.3 µM | 1.93 µM | 13.3 µM and 3.67 µM | 2.98 µM and 5.14 µM |  |  |  |  |  |  |
| O=C(Nc1nc2ccccc2s1)c1cc(-c2ccc(F)cc2)n2nc(-c3ccccc3)cc2n1 | 21 µM | 71.7 µM | 3.89 µM | > 100 µM |  |  | 8.97 µM |  |  |  |  |  |  | > 100 µM | 3.15 µM | 2.36 µM | 5.61 µM | 2.71 µM |  |  |
| CC(=O)NC(CCCN(Cc1ccccc1)C(=O)N(C)N=O)C(=O)NCc1ccccc1 (stereo not drawn) |  | > 100 µM |  | > 100 µM |  | > 100 µM | > 100 µM | > 100 µM | > 100 µM |  | > 100 µM |  | > 100 µM | > 100 µM |  |  |  |  |  |  |
| CC(N1CCOCC1)C(O)(c1ccccc1)c1ccccn1 (stereo not drawn) |  |  |  | > 100 µM |  | > 100 µM | > 100 µM | > 100 µM | > 100 µM |  | > 100 µM |  | > 100 µM | > 100 µM |  |  | > 100 µM |  |  |  |
| Cc1ccc2nc(NC(=O)C(=O)CC(=O)c3cccc4ccccc34)sc2c1 |  | > 100 µM |  | > 100 µM |  | > 100 µM | > 100 µM | > 100 µM | 55.4 µM |  | > 100 µM |  | > 100 µM |  |  |  |  |  |  |  |
| c1ccc(-c2ccnc3c2ccc2c(-c4ccccc4)ccnc23)cc1 |  | 2.93 µM |  | 13.3 µM |  | 7.28 µM | 11.4 µM | 9.45 µM | 11.2 µM |  | 11.8 µM |  | 19.9 µM | 10.4 µM |  |  |  |  |  |  |
| O=C(/C=C/c1ccc([N+](=O)[O-])cc1)c1cccc(Nc2nc(Nc3ccccc3)nc(Nc3ccccc3)n2)c1 | 2.6 µM | 20 µM | 17.6 µM | > 100 µM | 9.63 µM | 38 µM | 54.6 µM | > 100 µM | 17.6 µM | 51 µM | > 100 µM | 12.5 µM | 40.1 µM |  | 17.7 µM | 10.7 µM | 41.9 µM |  | 27 µM | 1.13 µM |
| O=C1C=Cc2ncccc2C1=O |  |  |  | > 59.2 µM |  | 38.2 µM | 39.2 µM | 50.6 µM | 28.2 µM |  | > 58 µM |  | 48.1 µM | 31.1 µM |  |  |  |  |  |  |
| [CH3][Sn]1([CH3])[O]CC(COc2cc(Cl)c(Cl)cc2Cl)[O]1 (stereo not drawn) | > 100 µM | > 100 µM | 74.9 µM | > 100 µM | > 100 µM | > 100 µM | > 100 µM | > 100 µM | > 100 µM |  |  | > 100 µM | > 100 µM | > 100 µM | 62 µM |  |  | 73.7 µM | 85.5 µM | 49.8 µM |
| COC(=O)C(C(=O)C(N)=O)c1csc(-n2nc(-c3ccccc3)cc2-c2ccccc2)n1 (stereo not drawn) |  | > 31.6 µM |  | > 31.6 µM |  | > 31.6 µM | > 31.6 µM | > 31.6 µM | > 31.6 µM |  | > 100 µM |  | > 31.6 µM | > 31.6 µM |  |  |  |  |  |  |
| NNC(=O)C(O)C(O)C(=O)NN (stereo not drawn) |  | > 100 µM |  | > 100 µM |  |  | > 100 µM | > 100 µM | > 100 µM |  | > 100 µM |  | > 100 µM | > 100 µM |  |  | > 100 µM |  |  |  |
| C/C(=N\NS(=O)(=O)c1ccc([N+](=O)[O-])cc1)c1ccc[n+]([O-])n1 |  | 11.5 µM |  | 7.65 µM |  | 2.75 µM | 3.84 µM | > 21.7 µM | 5.97 µM |  | 6.1 µM |  |  | 3.9 µM |  |  |  |  |  |  |
| N#CC(C(=O)CCCC(=O)Nc1ccc(Cl)cc1Cl)c1ccc(Cl)cc1 (stereo not drawn) |  | > 100 µM |  | > 100 µM |  | > 100 µM | > 100 µM | > 100 µM |  |  | > 100 µM |  | > 100 µM | > 100 µM |  |  |  |  |  |  |
| Cn1nc(-c2ccccc2)c(C(=O)/C=C/c2ccc(Cl)cc2)c(N2CCCC2)c1=O |  | 6.66 µM |  | 20.2 µM |  | 12.9 µM |  | 3.34 µM | 18.6 µM |  |  |  | 13.8 µM | 8.11 µM |  |  |  |  |  |  |
| O=C(/C=C/C1C(=O)NC(=O)NC1=O)CC(=O)C(=O)Nc1cc(Cl)c(Cl)cc1Cl |  | > 100 µM |  | > 100 µM |  | > 100 µM | > 100 µM | > 100 µM | > 100 µM |  | > 100 µM |  | > 100 µM | > 100 µM |  |  |  |  |  |  |
| NS(=O)(=O)c1ccc(NC(=O)c2cccc(NC3=C(Cl)C(=O)N(Cc4ccccc4)C3=O)c2)cc1 | 2.09 µM | 7.99 µM | 11.7 µM | 32.4 µM | 10.5 µM | 25.6 µM | 33.2 µM | 33.2 µM | 24.1 µM |  |  | 20 µM | 42.9 µM | 43.4 µM | 10.3 µM | 6.93 µM | 37 µM | 13.9 µM | 14.7 µM | 7.87 µM |
| CC1=CC(=O)NP(=O)(C23CC4CC(CC(C4)C2)C3)N1 (stereo not drawn) |  | > 100 µM |  | > 100 µM |  | > 100 µM | > 100 µM | > 100 µM | > 100 µM |  | > 100 µM |  | > 100 µM | > 100 µM |  |  |  |  |  |  |
| CC(C)[Si](OCC1CC(C#N)OC(C)(C)O1)(C(C)C)C(C)C (stereo not drawn) |  | 41.1 µM |  | 82.7 µM |  | 30.8 µM | 30.6 µM | 29.4 µM | 33 µM |  | > 100 µM |  | > 100 µM | 30.1 µM |  |  |  |  |  |  |
| COc1ccc(NC(=O)C2C(=O)N(c3ccc(OC)cc3)C(=O)/C2=N\NC(N)=O)cc1 (stereo not drawn) |  |  |  | 63.9 µM |  | > 100 µM | > 100 µM | 82.5 µM | 37.7 µM |  | > 100 µM |  | > 100 µM | 46.8 µM |  |  |  |  |  |  |
| COc1cccc2c1cc1c3c(cc4c(c32)OCO4)C(=O)N1 |  |  | 6.07 µM | 96.3 µM | 3.68 µM | 20.4 µM | 44.2 µM | 15.4 µM | > 100 µM | 6.56 µM | > 100 µM | 13.1 µM | 67.2 µM | 13.2 µM | 16.5 µM | 7.9 µM | 47.2 µM | 3.63 µM | 3.76 µM | 4.49 µM |
